Reference: patent US20070244071A1, “Treatment of proliferative diseases” (MOUNT SINAI HOSPITAL, priority 2006, published 2007)

Columns and labels:
[1] = test system: DR26 cells; assay: Steady-state nuclear Smad2-p and Erk-p, DR26 cells; type: cell-based; conditions: DR26 cells in culture, 1% FBS
[2] = test system: Mgat5^+/+(2.6) mammary carcinoma cells; assay: Nuclear Smad2/3 and Erk-p (TGF-β / EGF sensitivity) in Mgat5^+/+(2.6) cells; type: cell-based, mice; conditions: Mgat5^+/+(2.6) cells in culture, 1% FBS, steady state
[3] = test system: MvLu cells; assay: Steady-state nuclear Smad2-p and Erk-p, MvLu cells; type: cell-based; conditions: MvLu cells in culture, 1% FBS
[4] = test system: TGF-β induced Smad2/3 nuclear translocation; assay: TGF-β-dependent Smad2/3 nuclear translocation assay in NMuMG cells; type: cell-based, Murine
Procedure: NMuMG epithelial cells were plated in 96 well Coming tissue plates (Coming) at a density of 5000 cells/well in 100 μl of DMEM, 10% FBS, 10 μg/ml insulin (Gibco) for 24 h. The medium was replaced with 100 μl of DMEM, 10 μg/ml insulin, 0.2 mg/ml BSA (fraction V) for 18 h. Test compounds at 10 μM were added and cells were incubated for 60 min at 37° C. TGF-β1 (R&D System, Minneapolis, Minn.) was added at 50 pM and incubated for a further 50 min. Cells were then fixed with 4% paraformaldehyde in PBS for 15 min and washed 3 times in PBS. Cells were permeabilized with 100% methanol for 2 min, then washed 3 times with PBS, followed by the addition of 150 μl PBS, 10% FBS. Plates were stored overnight at 4° C. Anti-Smad2/3 or anti-phospho-Smad2 antibodies (Transduction Laboratories, San Jose, Calif.) diluted 1:1000 in PBS plus 10% FBS were added at 50 μl/well and the plates were incubated for 1 h at 20° C. […] The wells were washed 3 times with PBS and imaged and quantified on the Array Scan (Cellomics Inc., Pittsburgh, Pa.) using the cytoplasmic-nuclear translocation program. To measure Erk phosphorylation (Erk-p) and nuclear translocation, mouse anti-phospho-Erkl/2 (Thr202/Tyr204) (Sigma, St. Louis, Mo.) was added at 1/1000 in PBS plus 10% FBS for 1 h at 20° C. The nuclear-cytoplasmic difference was determined for 100 cells per well, generating a mean±SE for each condition.

[5] = test system: non-transformed MvLu epithelial cells; assay: Cytotoxicity / cell growth assay, MvLu cells; type: cell-based; conditions: increasing concentrations, DMEM 1% FBS, AlamarBlue, 72 h (source says 48 h)
Procedure: In brief, 1000 cells/well were seeded in 96 well plates and cultured for 24 h prior to the addition of DAM-1976. Viable cells were measured at 48 or 72 h by adding of either XTT or AlamarBlue with further incubation at 37° C. For the XTT assay, absorbance was measured at 500 nm, 4 h after addition of XTT. Fluorescence with excitation at 544 nm and emission at 590 nm were measured 24 h after addition of AlamarBlue.

Substance: TGF-β: transforming growth factor-beta cytokine; TGF-β1 (R&D System) used as stimulus and growth comparator
- basal nuclear Erk-p [1]: a decline or no change
- basal nuclear Smad2-p [1]: not altered
- basal nuclear Erk-p [2]: enhanced
- basal nuclear Smad2-p [2]: not altered
- basal nuclear Erk-p [3]: a decline or no change
- basal nuclear Smad2-p [3]: increased slightly
- increase in nuclear Smad2/3 protein ([4]; 20 min after addition of cytokine, sustained until 50 min): 10 fold
- saturation of Smad2/3 nuclear translocation ([4]; dose of 50 pM): ~80%
- cell growth (cell number) [5]: inhibited
